The values that follow come from the NIST ThermoML archive (doi:10.1016/j.jct.2008.09.002).

Molecules are shown by their SMILES. ± gives the expanded uncertainty stated by the source.

For data set [1] the following is noted: 101.33 kPa, Liquid; for speed of sound: Anton-Paar DSA48 sound analyzer; for mass density: Vibrating tube method.
The nature of data set [2]: molar heat capacity at constant pressure. The conditions noted are these: 101.33 kPa, Liquid, Small sample (50 mg) DSC.

As for `CCCCn1cc[n+](C)c1.COS(=O)(=O)[O-]` [1-butyl-3-methylimidazolium methyl sulfate], the speed of sound in data set [1] (293.15 K) turned out to be 1670.9 ± 2 m/s; in data set [1] (298.15 K), 1658.4 ± 2 m/s; in data set [1] (303.15 K) it was 1646 ± 2 m/s; in data set [1] (308.15 K) it was 1633.5 ± 2 m/s; in data set [1] (313.15 K) it was 1621.1 ± 2 m/s; in data set [1] (318.15 K) it was 1608.6 ± 2 m/s. The mass density in data set [1] (293.15 K) was found to be 1210.7 ± 1.3 kg/m3; in data set [1] (298.15 K), 1207.4 ± 1.3 kg/m3; in data set [1] (303.15 K) it was 1204.1 ± 1.3 kg/m3; in data set [1] (308.15 K), 1200.8 ± 1.3 kg/m3; in data set [1] (313.15 K) it was 1197.5 ± 1.3 kg/m3; in data set [1] (318.15 K), 1194.2 ± 1.3 kg/m3. The “molar heat capacity at constant pressure” value is given as 413.7 ± 6.4 J/K/mol in data set [2] (293.15 K); 416.2 ± 6.4 J/K/mol in data set [2] (298.15 K); 418.5 ± 6.5 J/K/mol in data set [2] (303.15 K); 420.9 ± 6.5 J/K/mol in data set [2] (308.15 K); 423.3 ± 6.6 J/K/mol in data set [2] (313.15 K); 425.6 ± 6.6 J/K/mol in data set [2] (318.15 K).
With `CCCCn1cc[n+](C)c1.F[B-](F)(F)F` [1-butyl-3-methylimidazolium tetrafluoroborate], the speed of sound was determined as 1594.9 ± 2 m/s in data set [1] (293.15 K); 1576.1 ± 2 m/s in data set [1] (298.15 K); 1555.5 ± 2 m/s in data set [1] (303.15 K); 1543.9 ± 2 m/s in data set [1] (308.15 K); 1532.5 ± 2 m/s in data set [1] (313.15 K); 1521.2 ± 2 m/s in data set [1] (318.15 K). The mass density in data set [1] (293.15 K) is given as 1207.6 ± 1.3 kg/m3; in data set [1] (298.15 K), 1204.1 ± 1.3 kg/m3; in data set [1] (303.15 K), 1200.5 ± 1.3 kg/m3; in data set [1] (308.15 K), 1197 ± 1.3 kg/m3; in data set [1] (313.15 K), 1193.4 ± 1.3 kg/m3; in data set [1] (318.15 K), 1189.9 ± 1.3 kg/m3. In addition, the “molar heat capacity at constant pressure” value in data set [2] (293.15 K) was 359.8 ± 5.6 J/K/mol; in data set [2] (298.15 K), 363.1 ± 5.6 J/K/mol; in data set [2] (303.15 K), 366.1 ± 5.7 J/K/mol; in data set [2] (308.15 K), 368.7 ± 5.7 J/K/mol; in data set [2] (313.15 K), 371 ± 5.7 J/K/mol; in data set [2] (318.15 K), 372.9 ± 5.8 J/K/mol.
For `CCCCn1cc[n+](C)c1.O=S(=O)([O-])C(F)(F)F` [1-butyl-3-methylimidazolium trifluoromethanesulfonate], the speed of sound in data set [1] (293.15 K) amounted to 1403.4 ± 2 m/s; in data set [1] (298.15 K) it was 1392.1 ± 2 m/s; in data set [1] (303.15 K) it was 1380.9 ± 2 m/s; in data set [1] (308.15 K), 1369.8 ± 2 m/s; in data set [1] (313.15 K), 1358.8 ± 2 m/s; in data set [1] (318.15 K) it was 1348.1 ± 2 m/s. Further, the mass density in data set [1] (293.15 K) worked out at 1301.6 ± 1.5 kg/m3; in data set [1] (298.15 K) it was 1297.6 ± 1.5 kg/m3; in data set [1] (303.15 K), 1293.7 ± 1.5 kg/m3; in data set [1] (308.15 K) it was 1289.7 ± 1.5 kg/m3; in data set [1] (313.15 K), 1285.8 ± 1.5 kg/m3; in data set [1] (318.15 K) it was 1281.9 ± 1.5 kg/m3. Further, the “molar heat capacity at constant pressure” value was 421.6 ± 6.5 J/K/mol in data set [2] (293.15 K); 424.1 ± 6.6 J/K/mol in data set [2] (298.15 K); 426.7 ± 6.6 J/K/mol in data set [2] (303.15 K); 429.5 ± 6.7 J/K/mol in data set [2] (308.15 K); 432.4 ± 6.7 J/K/mol in data set [2] (313.15 K); 435.5 ± 6.7 J/K/mol in data set [2] (318.15 K).
For `CCCC[n+]1cccc(C)c1.F[B-](F)(F)F` [1-butyl-3-methylpyridinium tetrafluoroborate], the speed of sound was found to be 1599.8 ± 2 m/s in data set [1] (293.15 K); 1587 ± 2 m/s in data set [1] (298.15 K); 1574.8 ± 2 m/s in data set [1] (303.15 K); 1562.6 ± 2 m/s in data set [1] (308.15 K); 1550.7 ± 2 m/s in data set [1] (313.15 K); 1538.9 ± 2 m/s in data set [1] (318.15 K).
Turning to `CCOS(=O)(=O)[O-].CCn1cc[n+](C)c1` [1-ethyl-3-methylimidazolium ethyl sulfate], the speed of sound is 1691.4 ± 2 m/s in data set [1] (293.15 K); 1679 ± 2 m/s in data set [1] (298.15 K); 1666.6 ± 2 m/s in data set [1] (303.15 K); 1654 ± 2 m/s in data set [1] (308.15 K); 1641.6 ± 2 m/s in data set [1] (313.15 K); 1629.2 ± 2 m/s in data set [1] (318.15 K). In addition, the mass density in data set [1] (293.15 K) was found to be 1240.6 ± 1.4 kg/m3; in data set [1] (298.15 K), 1237.2 ± 1.4 kg/m3; in data set [1] (303.15 K), 1233.8 ± 1.4 kg/m3; in data set [1] (308.15 K), 1230.4 ± 1.3 kg/m3; in data set [1] (313.15 K), 1227 ± 1.3 kg/m3; in data set [1] (318.15 K), 1223.7 ± 1.3 kg/m3. The “molar heat capacity at constant pressure” value was determined as 392.2 ± 6.1 J/K/mol in data set [2] (293.15 K); 394.4 ± 6.1 J/K/mol in data set [2] (298.15 K); 396.8 ± 6.1 J/K/mol in data set [2] (303.15 K); 399.3 ± 6.2 J/K/mol in data set [2] (308.15 K); 402 ± 6.2 J/K/mol in data set [2] (313.15 K); 404.9 ± 6.3 J/K/mol in data set [2] (318.15 K).

By speed of sound is commonly meant how fast a sound wave travels through the sample. What is called mass density is the mass of a sample divided by its volume.
